Assay results from ChEMBL document CHEMBL5303573, “Mapping human microbiome drug metabolism by gut bacteria and their genes” (Nature, 2019).

test: The drug is tested on Providencia rettgeri strain: DSM1131 for biotransformation. The drug concentrations were measured before and after a 12-h incubation by liquid-chromatography-coupled mass spectrometry (LC–MS); type: ADME; parameters: dose 2 uM, timepoint 0 vs 12 hours; conditions: 2 µM

Row | SMILES | Bacterial Biotransformation
1 | COc1ccccc1OCC(O)COC(N)=O (stereo unspecified) [METHOCARBAMOL] | Compound NOT metabolized

test: The drug is tested on Bacteroides caccae strain: ATCC43185 for biotransformation. The drug concentrations were measured before and after a 12-h incubation by liquid-chromatography-coupled mass spectrometry (LC–MS); conditions: 2 µM

Row | SMILES | Bacterial Biotransformation
2 | CCN(CC)CCOC(=O)C(Cc1cccc2ccccc12)CC1CCCO1.O=C(O)C(=O)O (stereo unspecified) [NAFRONYL OXALATE] | Compound NOT metabolized
3 | Cc1ccc(NC(=O)c2ccc(CN3CCN(C)CC3)cc2)cc1Nc1nccc(-c2cccnc2)n1 [IMATINIB] | Compound NOT metabolized
4 | CN(C(=O)CN(CCO)CC(=O)N(C)C(C)(C)Cc1ccccc1)C(C)(C)Cc1ccccc1 [OXETHAZAINE] | Compound NOT metabolized
5 | COc1ccccc1OCC(O)COC(N)=O (stereo unspecified) [METHOCARBAMOL] | Compound NOT metabolized

conditions: bifidobacterium adolescentis, 12 h, 2 µM
Description: The drug is tested on Bifidobacterium adolescentis strain: ATCC 15703 for biotransformation. The drug concentrations were measured before and after a 12-h incubation by liquid-chromatography-coupled mass spectrometry (LC–MS)

Row | SMILES | Bacterial Biotransformation
6 | CCN(CC)CCOC(=O)C(Cc1cccc2ccccc12)CC1CCCO1.O=C(O)C(=O)O (stereo unspecified) [NAFRONYL OXALATE] | Compound NOT metabolized
7 | Cc1ccc(NC(=O)c2ccc(CN3CCN(C)CC3)cc2)cc1Nc1nccc(-c2cccnc2)n1 [IMATINIB] | Compound NOT metabolized
8 | CN(C(=O)CN(CCO)CC(=O)N(C)C(C)(C)Cc1ccccc1)C(C)(C)Cc1ccccc1 [OXETHAZAINE] | Compound NOT metabolized
9 | COc1ccccc1OCC(O)COC(N)=O (stereo unspecified) [METHOCARBAMOL] | Compound NOT metabolized

test: The drug is tested on Bacteroides vulgatus strain: ATCC8482 for biotransformation. The drug concentrations were measured before and after a 12-h incubation by liquid-chromatography-coupled mass spectrometry (LC–MS); conditions: phocaeicola vulgatus, 2 µM

Row | SMILES | Bacterial Biotransformation
10 | CCN(CC)CCOC(=O)C(Cc1cccc2ccccc12)CC1CCCO1.O=C(O)C(=O)O (stereo unspecified) [NAFRONYL OXALATE] | Compound metabolized
11 | Cc1ccc(NC(=O)c2ccc(CN3CCN(C)CC3)cc2)cc1Nc1nccc(-c2cccnc2)n1 [IMATINIB] | Compound metabolized
12 | CN(C(=O)CN(CCO)CC(=O)N(C)C(C)(C)Cc1ccccc1)C(C)(C)Cc1ccccc1 [OXETHAZAINE] | Compound NOT metabolized
13 | COc1ccccc1OCC(O)COC(N)=O (stereo unspecified) [METHOCARBAMOL] | Compound NOT metabolized

test: The drug is tested on Ruminococcus lactaris strain: ATCC29176 for biotransformation. The drug concentrations were measured before and after a 12-h incubation by liquid-chromatography-coupled mass spectrometry (LC–MS); conditions: 2 µM

Row | SMILES | Bacterial Biotransformation
14 | CCN(CC)CCOC(=O)C(Cc1cccc2ccccc12)CC1CCCO1.O=C(O)C(=O)O (stereo unspecified) [NAFRONYL OXALATE] | Compound NOT metabolized
15 | Cc1ccc(NC(=O)c2ccc(CN3CCN(C)CC3)cc2)cc1Nc1nccc(-c2cccnc2)n1 [IMATINIB] | Compound NOT metabolized
16 | CN(C(=O)CN(CCO)CC(=O)N(C)C(C)(C)Cc1ccccc1)C(C)(C)Cc1ccccc1 [OXETHAZAINE] | Compound NOT metabolized

test: The drug is tested on Clostridium sporogenes strain: ATCC15579 for biotransformation. The drug concentrations were measured before and after a 12-h incubation by liquid-chromatography-coupled mass spectrometry (LC–MS); conditions: 2 µM

Row | SMILES | Bacterial Biotransformation
17 | CCN(CC)CCOC(=O)C(Cc1cccc2ccccc12)CC1CCCO1.O=C(O)C(=O)O (stereo unspecified) [NAFRONYL OXALATE] | Compound NOT metabolized
18 | CN(C(=O)CN(CCO)CC(=O)N(C)C(C)(C)Cc1ccccc1)C(C)(C)Cc1ccccc1 [OXETHAZAINE] | Compound NOT metabolized
19 | COc1ccccc1OCC(O)COC(N)=O (stereo unspecified) [METHOCARBAMOL] | Compound NOT metabolized

test: The drug is tested on Bacteroides cellulosilyticus strain: DSM14838 for biotransformation. The drug concentrations were measured before and after a 12-h incubation by liquid-chromatography-coupled mass spectrometry (LC–MS); conditions: 2 µM

Row | SMILES | Bacterial Biotransformation
20 | CCN(CC)CCOC(=O)C(Cc1cccc2ccccc12)CC1CCCO1.O=C(O)C(=O)O (stereo unspecified) [NAFRONYL OXALATE] | Compound NOT metabolized
21 | Cc1ccc(NC(=O)c2ccc(CN3CCN(C)CC3)cc2)cc1Nc1nccc(-c2cccnc2)n1 [IMATINIB] | Compound NOT metabolized
22 | CN(C(=O)CN(CCO)CC(=O)N(C)C(C)(C)Cc1ccccc1)C(C)(C)Cc1ccccc1 [OXETHAZAINE] | Compound NOT metabolized
23 | COc1ccccc1OCC(O)COC(N)=O (stereo unspecified) [METHOCARBAMOL] | Compound NOT metabolized

test: The drug is tested on Bifidobacterium breve strain: DSM20213 for biotransformation. The drug concentrations were measured before and after a 12-h incubation by liquid-chromatography-coupled mass spectrometry (LC–MS); conditions: 2 µM

Row | SMILES | Bacterial Biotransformation
24 | CCN(CC)CCOC(=O)C(Cc1cccc2ccccc12)CC1CCCO1.O=C(O)C(=O)O (stereo unspecified) [NAFRONYL OXALATE] | Compound NOT metabolized
25 | Cc1ccc(NC(=O)c2ccc(CN3CCN(C)CC3)cc2)cc1Nc1nccc(-c2cccnc2)n1 [IMATINIB] | Compound NOT metabolized
26 | CN(C(=O)CN(CCO)CC(=O)N(C)C(C)(C)Cc1ccccc1)C(C)(C)Cc1ccccc1 [OXETHAZAINE] | Compound NOT metabolized
27 | COc1ccccc1OCC(O)COC(N)=O (stereo unspecified) [METHOCARBAMOL] | Compound NOT metabolized

conditions: anaerostipes sp., 12 h, 2 µM
Description: The drug is tested on Anaerostipes sp. strain: fecal isolate for biotransformation. The drug concentrations were measured before and after a 12-h incubation by liquid-chromatography-coupled mass spectrometry (LC–MS)

Row | SMILES | Bacterial Biotransformation
28 | CCN(CC)CCOC(=O)C(Cc1cccc2ccccc12)CC1CCCO1.O=C(O)C(=O)O (stereo unspecified) [NAFRONYL OXALATE] | Compound NOT metabolized
29 | Cc1ccc(NC(=O)c2ccc(CN3CCN(C)CC3)cc2)cc1Nc1nccc(-c2cccnc2)n1 [IMATINIB] | Compound NOT metabolized
30 | CN(C(=O)CN(CCO)CC(=O)N(C)C(C)(C)Cc1ccccc1)C(C)(C)Cc1ccccc1 [OXETHAZAINE] | Compound NOT metabolized
31 | COc1ccccc1OCC(O)COC(N)=O (stereo unspecified) [METHOCARBAMOL] | Compound NOT metabolized

test: The drug is tested on Clostridium scindens strain: ATCC35704 for biotransformation. The drug concentrations were measured before and after a 12-h incubation by liquid-chromatography-coupled mass spectrometry (LC–MS); conditions: 2 µM

Row | SMILES | Bacterial Biotransformation
32 | CCN(CC)CCOC(=O)C(Cc1cccc2ccccc12)CC1CCCO1.O=C(O)C(=O)O (stereo unspecified) [NAFRONYL OXALATE] | Compound NOT metabolized
33 | CN(C(=O)CN(CCO)CC(=O)N(C)C(C)(C)Cc1ccccc1)C(C)(C)Cc1ccccc1 [OXETHAZAINE] | Compound NOT metabolized

conditions: parabacteroides distasonis, 12 h, 2 µM
Description: The drug is tested on Parabacteroides distasonis strain: ATCC8503 for biotransformation. The drug concentrations were measured before and after a 12-h incubation by liquid-chromatography-coupled mass spectrometry (LC–MS)

Row | SMILES | Bacterial Biotransformation
34 | CCN(CC)CCOC(=O)C(Cc1cccc2ccccc12)CC1CCCO1.O=C(O)C(=O)O (stereo unspecified) [NAFRONYL OXALATE] | Compound NOT metabolized
35 | Cc1ccc(NC(=O)c2ccc(CN3CCN(C)CC3)cc2)cc1Nc1nccc(-c2cccnc2)n1 [IMATINIB] | Compound NOT metabolized
36 | COc1ccccc1OCC(O)COC(N)=O (stereo unspecified) [METHOCARBAMOL] | Compound NOT metabolized

conditions: bacteroides thetaiotaomicron, 12 h, 2 µM
Description: The drug is tested on Bacteroides thetaiotaomicron strain: VPI-5482 for biotransformation. The drug concentrations were measured before and after a 12-h incubation by liquid-chromatography-coupled mass spectrometry (LC–MS)

Row | SMILES | Bacterial Biotransformation
37 | CCN(CC)CCOC(=O)C(Cc1cccc2ccccc12)CC1CCCO1.O=C(O)C(=O)O (stereo unspecified) [NAFRONYL OXALATE] | Compound NOT metabolized
38 | Cc1ccc(NC(=O)c2ccc(CN3CCN(C)CC3)cc2)cc1Nc1nccc(-c2cccnc2)n1 [IMATINIB] | Compound NOT metabolized
39 | CN(C(=O)CN(CCO)CC(=O)N(C)C(C)(C)Cc1ccccc1)C(C)(C)Cc1ccccc1 [OXETHAZAINE] | Compound NOT metabolized
40 | COc1ccccc1OCC(O)COC(N)=O (stereo unspecified) [METHOCARBAMOL] | Compound NOT metabolized

conditions: segatella copri, 12 h, 2 µM
Description: The drug is tested on Prevotella copri strain: DSM18205 for biotransformation. The drug concentrations were measured before and after a 12-h incubation by liquid-chromatography-coupled mass spectrometry (LC–MS)

Row | SMILES | Bacterial Biotransformation
41 | CCN(CC)CCOC(=O)C(Cc1cccc2ccccc12)CC1CCCO1.O=C(O)C(=O)O (stereo unspecified) [NAFRONYL OXALATE] | Compound metabolized
42 | Cc1ccc(NC(=O)c2ccc(CN3CCN(C)CC3)cc2)cc1Nc1nccc(-c2cccnc2)n1 [IMATINIB] | Compound NOT metabolized
43 | COc1ccccc1OCC(O)COC(N)=O (stereo unspecified) [METHOCARBAMOL] | Compound NOT metabolized

test: The drug is tested on Odoribacter splanchnicus strain: fecal isolate for biotransformation. The drug concentrations were measured before and after a 12-h incubation by liquid-chromatography-coupled mass spectrometry (LC–MS); conditions: 2 µM

Row | SMILES | Bacterial Biotransformation
44 | CCN(CC)CCOC(=O)C(Cc1cccc2ccccc12)CC1CCCO1.O=C(O)C(=O)O (stereo unspecified) [NAFRONYL OXALATE] | Compound metabolized
45 | Cc1ccc(NC(=O)c2ccc(CN3CCN(C)CC3)cc2)cc1Nc1nccc(-c2cccnc2)n1 [IMATINIB] | Compound NOT metabolized
46 | CN(C(=O)CN(CCO)CC(=O)N(C)C(C)(C)Cc1ccccc1)C(C)(C)Cc1ccccc1 [OXETHAZAINE] | Compound NOT metabolized
47 | COc1ccccc1OCC(O)COC(N)=O (stereo unspecified) [METHOCARBAMOL] | Compound NOT metabolized

test: The drug is tested on Blautia hansenii strain: DSM20583 for biotransformation. The drug concentrations were measured before and after a 12-h incubation by liquid-chromatography-coupled mass spectrometry (LC–MS); conditions: 2 µM

Row | SMILES | Bacterial Biotransformation
48 | CCN(CC)CCOC(=O)C(Cc1cccc2ccccc12)CC1CCCO1.O=C(O)C(=O)O (stereo unspecified) [NAFRONYL OXALATE] | Compound metabolized
49 | Cc1ccc(NC(=O)c2ccc(CN3CCN(C)CC3)cc2)cc1Nc1nccc(-c2cccnc2)n1 [IMATINIB] | Compound NOT metabolized
50 | CN(C(=O)CN(CCO)CC(=O)N(C)C(C)(C)Cc1ccccc1)C(C)(C)Cc1ccccc1 [OXETHAZAINE] | Compound NOT metabolized
51 | COc1ccccc1OCC(O)COC(N)=O (stereo unspecified) [METHOCARBAMOL] | Compound NOT metabolized

conditions: parabacteroides johnsonii, 12 h, 2 µM
Description: The drug is tested on Parabacteroides johnsonii strain: DSM18315 for biotransformation. The drug concentrations were measured before and after a 12-h incubation by liquid-chromatography-coupled mass spectrometry (LC–MS)

Row | SMILES | Bacterial Biotransformation
52 | Cc1ccc(NC(=O)c2ccc(CN3CCN(C)CC3)cc2)cc1Nc1nccc(-c2cccnc2)n1 [IMATINIB] | Compound NOT metabolized
53 | CN(C(=O)CN(CCO)CC(=O)N(C)C(C)(C)Cc1ccccc1)C(C)(C)Cc1ccccc1 [OXETHAZAINE] | Compound NOT metabolized
54 | COc1ccccc1OCC(O)COC(N)=O (stereo unspecified) [METHOCARBAMOL] | Compound NOT metabolized

conditions: bacteroides fragilis, 12 h, 2 µM
Description: The drug is tested on Bacteroides fragilis strain: 3397 (T10) for biotransformation. The drug concentrations were measured before and after a 12-h incubation by liquid-chromatography-coupled mass spectrometry (LC–MS)

Row | SMILES | Bacterial Biotransformation
55 | CCN(CC)CCOC(=O)C(Cc1cccc2ccccc12)CC1CCCO1.O=C(O)C(=O)O (stereo unspecified) [NAFRONYL OXALATE] | Compound NOT metabolized
56 | CN(C(=O)CN(CCO)CC(=O)N(C)C(C)(C)Cc1ccccc1)C(C)(C)Cc1ccccc1 [OXETHAZAINE] | Compound NOT metabolized
57 | COc1ccccc1OCC(O)COC(N)=O (stereo unspecified) [METHOCARBAMOL] | Compound NOT metabolized

test: The drug is tested on Enterococcus faecalis strain: V583 for biotransformation. The drug concentrations were measured before and after a 12-h incubation by liquid-chromatography-coupled mass spectrometry (LC–MS); conditions: 2 µM

Row | SMILES | Bacterial Biotransformation
58 | CCN(CC)CCOC(=O)C(Cc1cccc2ccccc12)CC1CCCO1.O=C(O)C(=O)O (stereo unspecified) [NAFRONYL OXALATE] | Compound NOT metabolized
59 | Cc1ccc(NC(=O)c2ccc(CN3CCN(C)CC3)cc2)cc1Nc1nccc(-c2cccnc2)n1 [IMATINIB] | Compound NOT metabolized
60 | CN(C(=O)CN(CCO)CC(=O)N(C)C(C)(C)Cc1ccccc1)C(C)(C)Cc1ccccc1 [OXETHAZAINE] | Compound NOT metabolized
61 | COc1ccccc1OCC(O)COC(N)=O (stereo unspecified) [METHOCARBAMOL] | Compound NOT metabolized
